Experiments:
Assay type in all cases: in vivo
[1] = tested on: Puccinia recondita; experiment: Curative action against Puccinia recondita on wheat (wheat leaf rust); details: 16 ppm, curative spray 1 day after inoculation, wheat 'Kanzler', 7 days; untreated 100%
[2] = tested on: Pyricularia oryzae; details: 16 ppm, protective spray 1 day before inoculation, rice 'Tai-Nong 67', 6 days; untreated 90%
[3] = tested on: Botrytis cinerea; experiment: Action against Botrytis cinerea on bell pepper leaves; details: 250 ppm, spray 1 day before inoculation, bell pepper seedlings, after 5 days; untreated 80%
Text: The active compounds, separately or together, were formulated as a 10% emulsion in a mixture of 70% by weight of cyclohexanone, 20% by weight of Nekanil® LN (Lutensol® AP6, wetting agent having emulsifying and dispersant action based on ethoxylated alkylphenols) and 10% by weight of Wettol® EM (nonionic emulsifier based on ethoxylated castor oil) and diluted with water to the desired concentration.
Bell pepper seedlings of the variety “Neusiedler Ideal Elite” were, after 4 to 5 leaves were well developed, sprayed to run-off point with an aqueous active compound formulation which had been made up from a stock solution consisting of 10% of active compound, 63% of cyclohexanone and 27% of emulsifier. The next day, the treated plants were inoculated with a spore suspension of Botrytis cinerea which contained 1.7×10^6 spores/ml in an aqueous 2% strength biomalt solution. The test plants were subsequently placed in a climatized chamber at 22-24° C. and high atmospheric humidity. After 5 days, the extent of the fungal infection on the leaves could be determined visually in %.

Row | Structure (SMILES) | infection (extent of rust fungus development on the leaves) [1] | infection (extent of development of the disease on the leaves) [2] | infection (extent of fungal infection on the leaves) [3]
1 | CO/N=C(/C1=NOCCO1)c1ccccc1COc1ccccc1C [Compound B] | 90% | 40% | 
2 | CO/N=C(/C1=NOCCO1)c1ccccc1COc1ccn(-c2ccc(Cl)cc2)n1 [Compound I-1, (ortho-[1-{4-chlorophenyl}-pyrazol-3-yl-oxymethyl]-phenyl)(5,6-dihydro-[1,4,2]dioxazin-3-yl)methanone O-methyl oxime] | no infection | 10% | 3%
3 | CO/N=C(/C(=O)OC)c1ccccc1COc1ccn(-c2ccc(Cl)cc2)n1 [Compound A] | 60% |  | 40%

— patent US6451790B1, “Azadioxacycloalkenes and their use for combating harmful fungi and animal pests” (BASF Aktiengesellschaft, priority 1999, dated 2002)
